How the values were obtained:
Experiment in all cases: Weeding effect in post-emergence stage
Format in all cases: in vivo
Conditions in all cases: 250 g/ha; 2 leaf stage; 15 days after application; fresh weight control rate
Setaria viridis = tested on: Setaria viridis
Summary of the method: (§1)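 Pot-grown weeds sprayed post-emergence at the 2-leaf stage, 2 weeks after sowing, with compound in acetone/Tween 80 plus 1.5 L/ha methyl oleate concentrate at 500–15 g/ha. Fresh-weight growth control scored after 15 days in greenhouse, mean of three replicates, graded levels 0–5 (5: >85%, 0: <5%).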

Digitaria sanguinalis = tested on: Digitaria sanguinalis
Summary of the method: as §1

Amaranthus retroflexus = tested on: Amaranthus retroflexus
Summary of the method: as §1

Echinochloa crusgali = tested on: Echinochloa crusgali
Summary of the method: as §1

Abutilon theophrasti = tested on: Abutilon theophrasti
Summary of the method: as §1

SMILES | weeding effect in post-emergence stage, activity level (growth control rate), Setaria viridis (Setaria viridis) | weeding effect in post-emergence stage, activity level (growth control rate), Digitaria sanguinalis (Digitaria sanguinalis) | weeding effect in post-emergence stage, activity level (growth control rate), Amaranthus retroflexus (Amaranthus retroflexus) | weeding effect in post-emergence stage, activity level (growth control rate), Echinochloa crusgali (Echinochloa crusgali) | weeding effect in post-emergence stage, activity level (growth control rate), Abutilon theophrasti (Abutilon theophrasti)
Cc1nnc(NC(=O)c2ccc(C(F)(F)F)c([S@+]([O-])CCC(F)(F)C(F)(F)F)c2F)o1 [Compound 35] | 5 (Level 5: growth control rate is above 85%) | 5 (Level 5: growth control rate is above 85%) | 5 (Level 5: growth control rate is above 85%) | 5 (Level 5: growth control rate is above 85%) | 5 (Level 5: growth control rate is above 85%)
CCC[S@@+]([O-])c1c(C(F)(F)F)ccc(C(=O)Nc2nnc(C)o2)c1OC [Compound 531] | 5 (Level 5: growth control rate is above 85%) | 5 (Level 5: growth control rate is above 85%) | 5 (Level 5: growth control rate is above 85%) | 5 (Level 5: growth control rate is above 85%) | 5 (Level 5: growth control rate is above 85%)
CC(C)C[S@@+]([O-])c1c(C(F)(F)F)ccc(C(=O)Nc2nnco2)c1F [Compound 577] | 5 (Level 5: growth control rate is above 85%) | 5 (Level 5: growth control rate is above 85%) | 5 (Level 5: growth control rate is above 85%) | 5 (Level 5: growth control rate is above 85%) | 5 (Level 5: growth control rate is above 85%)
Cc1nnc(NC(=O)c2ccc(C(F)(F)F)c([S@+]([O-])CCC(F)F)c2F)o1 [Compound 28] | 5 (Level 5: growth control rate is above 85%) | 5 (Level 5: growth control rate is above 85%) | 5 (Level 5: growth control rate is above 85%) | 5 (Level 5: growth control rate is above 85%) | 5 (Level 5: growth control rate is above 85%)
Cc1nnc(NC(=O)c2ccc(C(F)(F)F)c([S@+]([O-])CC(C)F)c2F)o1 (some centres unmarked) [Compound 27] | 5 (Level 5: growth control rate is above 85%) | 5 (Level 5: growth control rate is above 85%) | 5 (Level 5: growth control rate is above 85%) | 5 (Level 5: growth control rate is above 85%) | 5 (Level 5: growth control rate is above 85%)
COCC[S@@+]([O-])c1c(C(F)(F)F)ccc(C(=O)Nc2nnc(C)o2)c1SC [Compound 565] | 5 (Level 5: growth control rate is above 85%) | 5 (Level 5: growth control rate is above 85%) | 5 (Level 5: growth control rate is above 85%) | 5 (Level 5: growth control rate is above 85%) | 5 (Level 5: growth control rate is above 85%)
COc1c(C(=O)Nc2nnc(C)o2)ccc(C(F)(F)F)c1[S@+]([O-])CCF [Compound 319] | 5 (Level 5: growth control rate is above 85%) | 5 (Level 5: growth control rate is above 85%) | 5 (Level 5: growth control rate is above 85%) | 5 (Level 5: growth control rate is above 85%) | 5 (Level 5: growth control rate is above 85%)
Cc1nnc(NC(=O)c2ccc(C(F)(F)F)c([S@+]([O-])CCCN)c2F)o1 [Compound 57] | 5 (Level 5: growth control rate is above 85%) | 5 (Level 5: growth control rate is above 85%) | 5 (Level 5: growth control rate is above 85%) | 5 (Level 5: growth control rate is above 85%) | 5 (Level 5: growth control rate is above 85%)
COc1c(C(=O)Nc2nnc(C)o2)ccc(C(F)(F)F)c1[S@+]([O-])CC(F)F [Compound 323] | 5 (Level 5: growth control rate is above 85%) | 5 (Level 5: growth control rate is above 85%) | 5 (Level 5: growth control rate is above 85%) | 5 (Level 5: growth control rate is above 85%) | 5 (Level 5: growth control rate is above 85%)
COc1c(C(=O)Nc2nnc(C)o2)ccc(C(F)(F)F)c1[S+]([O-])COCc1ccccc1 (centres unmarked) [Compound 347] | 5 (Level 5: growth control rate is above 85%) | 5 (Level 5: growth control rate is above 85%) | 5 (Level 5: growth control rate is above 85%) | 5 (Level 5: growth control rate is above 85%) | 5 (Level 5: growth control rate is above 85%)
CCc1nnc(NC(=O)c2ccc(C(F)(F)F)c([S@+]([O-])CC)c2OC)o1 [Compound 424] | 5 (Level 5: growth control rate is above 85%) | 5 (Level 5: growth control rate is above 85%) | 5 (Level 5: growth control rate is above 85%) | 5 (Level 5: growth control rate is above 85%) | 5 (Level 5: growth control rate is above 85%)
CCC[S@@+]([O-])c1c(C(F)(F)F)ccc(C(=O)Nc2nnc(C)o2)c1OCC [Compound 532] | 5 (Level 5: growth control rate is above 85%) | 5 (Level 5: growth control rate is above 85%) | 5 (Level 5: growth control rate is above 85%) | 5 (Level 5: growth control rate is above 85%) | 5 (Level 5: growth control rate is above 85%)
Cc1nnc(NC(=O)c2ccc(C(F)(F)F)c([S@+]([O-])CC(C)(F)F)c2F)o1 [Compound 29] | 5 (Level 5: growth control rate is above 85%) | 5 (Level 5: growth control rate is above 85%) | 5 (Level 5: growth control rate is above 85%) | 5 (Level 5: growth control rate is above 85%) | 5 (Level 5: growth control rate is above 85%)
Cc1nnc(NC(=O)c2ccc(C(F)(F)F)c([S@+]([O-])CCC(C)C)c2F)o1 [Compound 9] | 5 (Level 5: growth control rate is above 85%) | 5 (Level 5: growth control rate is above 85%) | 5 (Level 5: growth control rate is above 85%) | 5 (Level 5: growth control rate is above 85%) | 5 (Level 5: growth control rate is above 85%)
Cc1nnc(NC(=O)c2ccc(C(F)(F)F)c([S@+]([O-])CCCC#N)c2F)o1 [Compound 53] | 5 (Level 5: growth control rate is above 85%) | 5 (Level 5: growth control rate is above 85%) | 5 (Level 5: growth control rate is above 85%) | 5 (Level 5: growth control rate is above 85%) | 5 (Level 5: growth control rate is above 85%)
COc1c(C(=O)Nc2nnc(C)o2)ccc(C(F)(F)F)c1[S@+]([O-])CCCO [Compound 335] | 5 (Level 5: growth control rate is above 85%) | 5 (Level 5: growth control rate is above 85%) | 5 (Level 5: growth control rate is above 85%) | 5 (Level 5: growth control rate is above 85%) | 5 (Level 5: growth control rate is above 85%)
